In patent US20250382332A1, “NOVEL ALPHA-FACTOR BASED PEPTIDES WITH ANTIFUNGAL ACTIVITY” (INVAIO SCIENCES, INC., priority 2024, published 2025):
Peptide text beside a SMILES is read from it.

Test system: Botrytis cinerea (B05.10)
Test: Resazurin antifungal assay of 180 alpha-factor peptide variants towards Botrytis (Example 2)
Format: cell-based
Design: key to active against Botrytis at 15 μM / active against Botrytis at 10 μM: Peptides that showed greater than 90% inhibition were considered active against Botrytis
Settings: for Inhibition at 50 μM / Inhibition at 100 μM / Inhibition at 10 μM / Inhibition at 20 μM / Inhibition at 15 μM: % inhibition of fungal growth, Botrytis conidia, resazurin; for Inhibition at 50 μM: peptide 50 μM; for Inhibition at 100 μM: peptide 100 μM; for Inhibition at 10 μM: peptide 10 μM; for Inhibition at 20 μM: peptide 20 μM
Summary of the method: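 Resazurin viability read-out (570/620 nm fluorescence) after a 24 h, 20° C incubation of B05.10 conidia, 5000 per well, with peptide at final 10-100 μM. Growth inhibition (%) was derived by subtracting conidia-only fluorescence; four replicates per treatment.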

Row | SMILES | Inhibition at 50 μM | Inhibition at 100 μM | Inhibition at 10 μM | Inhibition at 20 μM | Inhibition at 15 μM (peptide 15 μM) | active against Botrytis at 15 μM (peptide 15 μM)
1 | CSCC[C@H](NC(=O)[C@@H]1CCCN1C(=O)[C@H](CCC(N)=O)NC(=O)CNC(=O)[C@@H]1CCCN1C(=O)[C@H](CCCCN)NC(=O)[C@H](Cc1ccccc1)NC(=O)[C@H](CCC(=O)O)NC(=O)[C@H](CC(C)C)NC(=O)[C@@H](NC(=O)[C@H](Cc1c[nH]cn1)NC(=O)[C@@H](N)CCCCN)[C@@H](C)O)C(=O)N[C@@H](Cc1ccc(O)cc1)C(=O)O [compound 177] (H-KHTLEFKPGQPMY-OH; N-terminus and C-terminus assumed) | <90% | <90% | – | – | – | –
2 | CSCC[C@H](NC(=O)[C@@H]1CCCN1C(=O)[C@H](CCC(N)=O)NC(=O)CNC(=O)[C@@H]1CCCN1C(=O)[C@H](CCCCN)NC(=O)[C@H](Cc1ccccc1)NC(=O)[C@H](CCCNC(=N)N)NC(=O)[C@H](CC(C)C)NC(=O)[C@@H](NC(=O)[C@H](Cc1c[nH]cn1)NC(=O)[C@@H](N)Cc1c[nH]c2ccccc12)C(C)C)C(=O)N[C@@H](Cc1ccc(O)cc1)C(=O)O [compound 101] (H-WHVLRFKPGQPMY-OH; N-terminus and C-terminus assumed) | 90.50% | 100% | <90% | <90% | – | –
3 | CSCC[C@H](NC(=O)[C@@H]1CCCN1C(=O)[C@H](CCC(N)=O)NC(=O)CNC(=O)[C@@H]1CCCN1C(=O)[C@H](Cc1c[nH]cn1)NC(=O)[C@H](CC(C)C)NC(=O)[C@H](CCCCN)NC(=O)[C@@H](NC(=O)[C@H](Cc1ccccc1)NC(=O)[C@H](Cc1c[nH]cn1)NC(=O)[C@@H](N)Cc1c[nH]c2ccccc12)C(C)C)C(=O)N[C@@H](Cc1ccc(O)cc1)C(=O)O [compound 74] (H-WHFVKLHPGQPMY-OH; N-terminus and C-terminus assumed) | 100% | 100% | <90% | <90% | – | –
4 | CSCC[C@H](NC(=O)[C@@H]1CCCN1C(=O)[C@H](CCC(N)=O)NC(=O)CNC(=O)[C@@H]1CCCN1C(=O)[C@H](Cc1ccccc1)NC(=O)[C@H](CC(C)C)NC(=O)[C@H](CCC(N)=O)NC(=O)[C@@H](NC(=O)[C@H](Cc1c[nH]c2ccccc12)NC(=O)[C@H](Cc1c[nH]cn1)NC(=O)[C@@H](N)CCCCN)C(C)C)C(=O)N[C@@H](Cc1ccc(O)cc1)C(=O)O [compound 144] (H-KHWVQLFPGQPMY-OH; N-terminus and C-terminus assumed) | <90% | 99.99% | – | – | – | –
5 | CSCC[C@H](NC(=O)[C@@H]1CCCN1C(=O)[C@H](CCC(=O)O)NC(=O)CNC(=O)[C@@H]1CCCN1C(=O)[C@H](CCCCN)NC(=O)[C@H](CC(C)C)NC(=O)[C@H](CC(N)=O)NC(=O)[C@H](CC(C)C)NC(=O)[C@H](Cc1c[nH]c2ccccc12)NC(=O)[C@H](CCCCN)NC(=O)[C@@H]1CCCN1)C(=O)N[C@@H](Cc1ccc(O)cc1)C(=O)O [compound 148] (H-PKWLNLKPGEPMY-OH; N-terminus and C-terminus assumed) | <90% | <90% | – | – | – | –
6 | CSCC[C@H](NC(=O)[C@@H]1CCCN1C(=O)[C@H](CCC(N)=O)NC(=O)CNC(=O)[C@@H]1CCCN1C(=O)[C@H](CCCCN)NC(=O)[C@H](Cc1ccccc1)NC(=O)[C@H](CCCNC(=N)N)NC(=O)[C@H](CC(C)C)NC(=O)[C@H](Cc1ccccc1)NC(=O)[C@H](Cc1c[nH]cn1)NC(=O)[C@@H](N)CCCCN)C(=O)N[C@@H](Cc1ccc(O)cc1)C(=O)O [compound 18] (H-KHFLRFKPGQPMY-OH; N-terminus and C-terminus assumed) | 100% | 100% | <90% | 99.67% | 94.03% | active
7 | CC[C@H](C)[C@H](NC(=O)[C@H](CO)NC(=O)[C@H](CC(C)C)NC(=O)[C@H](Cc1c[nH]c2ccccc12)NC(=O)[C@H](Cc1c[nH]cn1)NC(=O)[C@@H](N)Cc1c[nH]c2ccccc12)C(=O)N[C@@H](CCCCN)C(=O)N1CCC[C@H]1C(=O)NCC(=O)N[C@@H](CCC(N)=O)C(=O)NCC(=O)N[C@@H](CCSC)C(=O)N[C@@H](Cc1ccc(O)cc1)C(=O)O [compound 110] (H-WHWLSIKPGQGMY-OH; N-terminus and C-terminus assumed) | <90% | 97.94% | – | – | – | –
8 | CSCC[C@H](NC(=O)[C@@H]1CCCN1C(=O)[C@H](CCC(=O)O)NC(=O)CNC(=O)[C@H](CCCCN)NC(=O)[C@H](CCCCN)NC(=O)[C@H](CC(C)C)NC(=O)[C@H](CCC(N)=O)NC(=O)[C@@H](NC(=O)[C@H](Cc1c[nH]c2ccccc12)NC(=O)[C@H](Cc1c[nH]cn1)NC(=O)[C@@H](N)Cc1c[nH]c2ccccc12)C(C)C)C(=O)N[C@@H](Cc1ccc(O)cc1)C(=O)O [compound 106] (H-WHWVQLKKGEPMY-OH; N-terminus and C-terminus assumed) | <90% | 100% | <90% | <90% | – | –
9 | CSCC[C@H](NC(=O)[C@@H]1CCCN1C(=O)[C@H](CCC(N)=O)NC(=O)CNC(=O)[C@@H]1CCCN1C(=O)[C@H](CCCCN)NC(=O)[C@H](CC(C)C)NC(=O)[C@H](C)NC(=O)[C@H](CC(C)C)NC(=O)[C@H](Cc1ccc(O)cc1)NC(=O)[C@H](Cc1c[nH]cn1)NC(=O)[C@@H](N)CCCCN)C(=O)N[C@@H](Cc1ccc(O)cc1)C(=O)O [compound 103] (H-KHYLALKPGQPMY-OH; N-terminus and C-terminus assumed) | <90% | 98.77% | <90% | <90% | – | –
10 | CC[C@H](C)[C@H](NC(=O)[C@H](CC(C)C)NC(=O)[C@H](CCC(N)=O)NC(=O)CNC(=O)[C@H](Cc1c[nH]c2ccccc12)NC(=O)CNC(=O)[C@@H](N)CCCCN)C(=O)N1CCC[C@H]1C(=O)NCC(=O)N[C@@H](CCC(=O)O)C(=O)N1CCC[C@H]1C(=O)N[C@@H](CCSC)C(=O)N[C@@H](Cc1ccc(O)cc1)C(=O)O [compound 133] (H-KGWGQLIPGEPMY-OH; N-terminus and C-terminus assumed) | <90% | <90% | – | – | – | –
11 | CC[C@H](C)[C@H](NC(=O)[C@H](CCCNC(=N)N)NC(=O)[C@H](CC(C)C)NC(=O)[C@H](CCSC)NC(=O)[C@H](Cc1c[nH]cn1)NC(=O)[C@@H](N)CCCCN)C(=O)N[C@@H](CCCCN)C(=O)N1CCC[C@H]1C(=O)NCC(=O)N[C@@H](CCC(N)=O)C(=O)N1CCC[C@H]1C(=O)N[C@@H](CCSC)C(=O)N[C@@H](Cc1ccc(O)cc1)C(=O)O [compound 67] (H-KHMLRIKPGQPMY-OH; N-terminus and C-terminus assumed) | 100% | 100% | <90% | 97.68% | <90% | –
12 | CSCC[C@H](NC(=O)[C@@H]1CCCN1C(=O)[C@H](C)NC(=O)CNC(=O)[C@H](CCCNC(=N)N)NC(=O)[C@H](CCCCN)NC(=O)[C@H](CC(C)C)NC(=O)[C@H](CCC(N)=O)NC(=O)[C@@H](NC(=O)[C@H](Cc1c[nH]c2ccccc12)NC(=O)[C@H](Cc1c[nH]cn1)NC(=O)[C@@H]1CCCN1)C(C)C)C(=O)N[C@@H](Cc1ccc(O)cc1)C(=O)O [compound 6] (H-PHWVQLKRGAPMY-OH; N-terminus and C-terminus assumed) | 100% | 100% | <90% | <90% | – | –
13 | CC[C@H](C)[C@H](NC(=O)[C@H](Cc1c[nH]c2ccccc12)NC(=O)[C@H](Cc1c[nH]cn1)NC(=O)[C@@H]1CCCN1)C(=O)N[C@@H](CCCCN)C(=O)N[C@@H](CC(C)C)C(=O)N[C@@H](Cc1c[nH]cn1)C(=O)N[C@H](C(=O)NCC(=O)N[C@@H](CCC(N)=O)C(=O)N1CCC[C@H]1C(=O)N[C@@H](CCSC)C(=O)N[C@@H](Cc1ccc(O)cc1)C(=O)O)[C@@H](C)O [compound 77] (H-PHWIKLHTGQPMY-OH; N-terminus and C-terminus assumed) | 100% | 99.74% | <90% | <90% | – | –
14 | CSCC[C@H](NC(=O)CNC(=O)[C@H](CCC(N)=O)NC(=O)CNC(=O)[C@H](Cc1ccc(O)cc1)NC(=O)[C@H](CCCCN)NC(=O)[C@H](CC(C)C)NC(=O)[C@H](CCC(N)=O)NC(=O)[C@@H](NC(=O)[C@H](Cc1c[nH]c2ccccc12)NC(=O)[C@H](CCC(N)=O)NC(=O)[C@@H](N)CCCCN)C(C)C)C(=O)N[C@@H](Cc1ccc(O)cc1)C(=O)O [compound 123] (H-KQWVQLKYGQGMY-OH; N-terminus and C-terminus assumed) | <90% | 100% | – | – | – | –
15 | CC[C@H](C)[C@H](NC(=O)[C@H](CCC(N)=O)NC(=O)[C@H](CC(C)C)NC(=O)[C@H](Cc1c[nH]c2ccccc12)NC(=O)[C@H](CCCNC(=N)N)NC(=O)[C@@H](N)CCCCN)C(=O)N[C@@H](CCCNC(=N)N)C(=O)N1CCC[C@H]1C(=O)NCC(=O)N[C@@H](CCC(=O)O)C(=O)N1CCC[C@H]1C(=O)N[C@@H](CCSC)C(=O)N[C@@H](Cc1ccc(O)cc1)C(=O)O [compound 109] (H-KRWLQIRPGEPMY-OH; N-terminus and C-terminus assumed) | <90% | 98.64% | <90% | <90% | – | –
16 | CSCC[C@H](NC(=O)[C@@H]1CCCN1C(=O)[C@H](CCC(N)=O)NC(=O)CNC(=O)[C@@H]1CCCN1C(=O)[C@H](Cc1c[nH]c2ccccc12)NC(=O)[C@H](CC(C)C)NC(=O)[C@H](CCCCN)NC(=O)[C@H](CC(C)C)NC(=O)[C@H](Cc1c[nH]c2ccccc12)NC(=O)[C@H](Cc1c[nH]cn1)NC(=O)[C@@H](N)CCCCN)C(=O)N[C@@H](Cc1ccc(O)cc1)C(=O)O [compound 14] (H-KHWLKLWPGQPMY-OH; N-terminus and C-terminus assumed) | 100% | 100% | <90% | <90% | – | –
